# Data published in the supplement of paper PMC11208160.
# Experiment: recombinant UMI read abundance after kanamycin selection (control-corrected) (log10(CPM+1)); higher = more efficient recombination; extreme values may be limits of the assay; sequences stand for … in AGTGCAGAGAAAATCGGCCAGTTTTCTCTGCCTGCAGTCCGCATGCCGTGGGACCCCTTGGGTTCTAACCTGTTGCCTAGATTTATGCAGCGGACTGCCTTTCTCCCAAAGTGATAAACCGG…AGGTTGGTTTCACT; site = the 11-nt donor
# Protocol: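 Pooled E. coli donor-specificity screen for the IS621 bridge recombinase. Each library member carries a reprogrammed 11-nt donor and a full-length LE bridge RNA expressed in cis from the natural promoter, with a paired donor-binding loop (8-nt LDG + 4-nt RDG) and a target-binding loop fixed to T5. It is co-electroporated with a T5 target plasmid; recombinase is induced with 0.07 mM IPTG and recombinants are selected on kanamycin. UMIs are counted as CPM, averaged over two biological replicates and corrected by the unselected control. Molecule = full bridge RNA written as DNA, built from the T5 scaffold: LDG = donor specificity nt 1-8, RDG = reverse complement of nt 8-11.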
# 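Also: IS621 bridge recombinase in Escherichia coli cells against a fixed T5 target plasmid.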
row,Sequence,recombinant UMI read abundance (log10)
1,AAAACTTCATGGACCGGTTTTCCCGGTAATCCGTATTTGTC (site AAAACTTCTGA),0
2,AAAAGTCCATGGACCGGTTTTCCCGGTAATCCGTATTTGTA (site AAAAGTCCTTA),0.66
3,AAAAGTCCATGGACCGGTTTTCCCGGTAATCCGTATTTGTA (site CAAAGTCCTTA),0.48
4,AAAAGTCCATGGACCGGTTTTCCCGGTAATCCGTATTTGTA (site GAAAGTCCTTA),0.273
5,AAAAGTCCATGGACCGGTTTTCCCGGTAATCCGTATTTGTA (site TAAAGTCCTTA),1.12
6,AAACATCCATGGACCGGTTTTCCCGGTAATCCGTATTTGAC (site AAACATCCTGT),1.26
7,AAACATCCATGGACCGGTTTTCCCGGTAATCCGTATTTGAC (site ACACATCCTGT),0
8,AAACATCCATGGACCGGTTTTCCCGGTAATCCGTATTTGAC (site AGACATCCTGT),0
9,AAACATCCATGGACCGGTTTTCCCGGTAATCCGTATTTGAC (site ATACATCCTGT),0
10,AAACGTCCATGGACCGGTTTTCCCGGTAATCCGTATTTGTT (site AAACGTCCTAA),0.525
11,AAACTTACATGGACCGGTTTTCCCGGTAATCCGTATTTGCA (site AAACTTACTTG),1.52
12,AAACTTGCATGGACCGGTTTTCCCGGTAATCCGTATTTGGC (site AAACTTGCTGC),0
13,AAAGAAGCATGGACCGGTTTTCCCGGTAATCCGTATTTGGA (site AAAGAAGCTTC),1.94
14,AAAGAGGCATGGACCGGTTTTCCCGGTAATCCGTATTTGCA (site AAAGAGGCTTG),2.9
15,AAAGATCCATGGACCGGTTTTCCCGGTAATCCGTATTTGCC (site AAAGATCCTGG),0
16,AAAGCAGCATGGACCGGTTTTCCCGGTAATCCGTATTTGCT (site AAAGCAGCTAG),1.82
17,AAAGCAGCATGGACCGGTTTTCCCGGTAATCCGTATTTGCT (site CAAGCAGCTAG),1.5
18,AAAGCAGCATGGACCGGTTTTCCCGGTAATCCGTATTTGCT (site GAAGCAGCTAG),0.198
19,AAAGCAGCATGGACCGGTTTTCCCGGTAATCCGTATTTGCT (site TAAGCAGCTAG),1.67
20,AAAGCCACATGGACCGGTTTTCCCGGTAATCCGTATTTGTA (site AAAGCCACTTA),1.82
21,AAAGGTACATGGACCGGTTTTCCCGGTAATCCGTATTTGAG (site AAAGGTACTCT),2.1
22,AAAGGTTCATGGACCGGTTTTCCCGGTAATCCGTATTTGGG (site AAAGGTTCTCC),1.05

row,Sequence,recombinant UMI read abundance (log10)
1,AAAGTAACATGGACCGGTTTTCCCGGTAATCCGTATTTGCA (site AAAGTAACTTG),2.88
2,AAAGTAACATGGACCGGTTTTCCCGGTAATCCGTATTTGCA (site ACAGTATCTTG),2.56
3,AAAGTACCATGGACCGGTTTTCCCGGTAATCCGTATTTGCG (site AAAGTACCTCG),0.0963
4,AAAGTCTCATGGACCGGTTTTCCCGGTAATCCGTATTTGAT (site AAAGTCTCTAT),3.17
5,AAAGTCTCATGGACCGGTTTTCCCGGTAATCCGTATTTGCA (site AAAGTCTCTTG),3.16
6,AAAGTCTCATGGACCGGTTTTCCCGGTAATCCGTATTTGCA (site ACAGTATCTTG),1.99
7,AAATAACCATGGACCGGTTTTCCCGGTAATCCGTATTTGAA (site AAATAACCTTT),0
8,AAATAAGCATGGACCGGTTTTCCCGGTAATCCGTATTTGGG (site AAATAAGCTCC),0.434
9,AAATCCGCATGGACCGGTTTTCCCGGTAATCCGTATTTGTC (site AAATCCGCTGA),2.33
10,AAATGGGCATGGACCGGTTTTCCCGGTAATCCGTATTTGCT (site AAATGGGCTAG),2.28
11,AAATGTTCATGGACCGGTTTTCCCGGTAATCCGTATTTGCC (site AAATGTTCTGG),2.2
12,AAATTCCCATGGACCGGTTTTCCCGGTAATCCGTATTTGCT (site AAATTCCCTAG),1.37
13,AAATTCCCATGGACCGGTTTTCCCGGTAATCCGTATTTGCT (site CAATTCCCTAG),0.647
14,AAATTCCCATGGACCGGTTTTCCCGGTAATCCGTATTTGCT (site GAATTCCCTAG),0.544
15,AAATTCCCATGGACCGGTTTTCCCGGTAATCCGTATTTGCT (site TAATTCCCTAG),1.08
16,AAATTCCCATGGACCGGTTTTCCCGGTAATCCGTATTTGGT (site AAATTCCCTAC),0
17,AACACACCATGGACCGGTTTTCCCGGTAATCCGTATTTGAC (site AACACACCTGT),0
18,AACACCTCATGGACCGGTTTTCCCGGTAATCCGTATTTGAT (site AACACCTCTAT),1.76
19,AACAGAGCATGGACCGGTTTTCCCGGTAATCCGTATTTGAT (site AACAGAGCTAT),2.02
20,AACCAAACATGGACCGGTTTTCCCGGTAATCCGTATTTGTC (site AACCAAACTGA),0
21,AACCCACCATGGACCGGTTTTCCCGGTAATCCGTATTTGGA (site AACCCACCTTC),0.0204
22,AACCGCCCATGGACCGGTTTTCCCGGTAATCCGTATTTGAT (site AACCGACCTAT),0.0035

row,Sequence,recombinant UMI read abundance (log10)
1,AACCGCCCATGGACCGGTTTTCCCGGTAATCCGTATTTGAT (site AACCGCCCTAT),0.00906
2,AACCGCCCATGGACCGGTTTTCCCGGTAATCCGTATTTGAT (site AACCGGCCTAT),0.00971
3,AACCGCCCATGGACCGGTTTTCCCGGTAATCCGTATTTGAT (site AACCGTCCTAT),0.0447
4,AACCGGCCATGGACCGGTTTTCCCGGTAATCCGTATTTGAT (site AACCGACCTAT),0
5,AACCGGCCATGGACCGGTTTTCCCGGTAATCCGTATTTGAT (site AACCGCCCTAT),0.014
6,AACCGGCCATGGACCGGTTTTCCCGGTAATCCGTATTTGAT (site AACCGGCCTAT),0.016
7,AACCGGCCATGGACCGGTTTTCCCGGTAATCCGTATTTGAT (site AACCGTCCTAT),0.0213
8,AACCGGTCATGGACCGGTTTTCCCGGTAATCCGTATTTGGA (site AACCGGTCTTC),0.422
9,AACCGTCCATGGACCGGTTTTCCCGGTAATCCGTATTTGAA (site AACCGTCCTAT),0.0196
10,AACCGTCCATGGACCGGTTTTCCCGGTAATCCGTATTTGAA (site AACCGTCCTCT),0.0191
11,AACCGTCCATGGACCGGTTTTCCCGGTAATCCGTATTTGAA (site AACCGTCCTGT),0
12,AACCGTCCATGGACCGGTTTTCCCGGTAATCCGTATTTGAA (site AACCGTCCTTT),0.0144
13,AACCGTCCATGGACCGGTTTTCCCGGTAATCCGTATTTGCT (site AACCGTCCTAA),0.0135
14,AACCGTCCATGGACCGGTTTTCCCGGTAATCCGTATTTGCT (site AACCGTCCTAC),0.00247
15,AACCGTCCATGGACCGGTTTTCCCGGTAATCCGTATTTGCT (site AACCGTCCTAG),0.593
16,AACCGTCCATGGACCGGTTTTCCCGGTAATCCGTATTTGCT (site AACCGTCCTAT),0.0146
17,AACCGTCCATGGACCGGTTTTCCCGGTAATCCGTATTTGGT (site AACCGTCCTAA),0.0129
18,AACCGTCCATGGACCGGTTTTCCCGGTAATCCGTATTTGGT (site AACCGTCCTAC),0.0164
19,AACCGTCCATGGACCGGTTTTCCCGGTAATCCGTATTTGGT (site AACCGTCCTAG),0.00368
20,AACCGTCCATGGACCGGTTTTCCCGGTAATCCGTATTTGGT (site AACCGTCCTAT),0.00572
21,AACCTTCCATGGACCGGTTTTCCCGGTAATCCGTATTTGAA (site AACCTTCCTTT),0.0147
